In patent US8329717B2, “Pyrimidine derivatives and their use for controlling undesired plant growth” (Bayer Cropscience AG, priority 2008, dated 2012):

Key:
Echinochloa crus-galli [1] = assay: Pre-emergence herbicidal effect; type: in vivo; settings: Dosage 320 g/ha, visual scoring after 3 weeks vs untreated controls, 100% = plants have died
In short: (§1)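 Seeds in sandy loam; WP or EC formulations sprayed onto covering soil at 600 to 800 l/ha water with 0.2% wetting agent, dosage in g/ha. Greenhouse-grown, visually scored at 3 weeks against untreated controls (100% = dead, 0% = as control).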

Matricaria inodora [2] = assay: Pre-emergence herbicidal effect; type: in vivo; settings: Dosage 320 g/ha, visual scoring after 3 weeks vs untreated controls, 100% = plants have died
In short: as §1

Amaranthus retroflexus [3] = assay: Pre-emergence herbicidal effect; type: in vivo; settings: Dosage 320 g/ha, visual scoring after 3 weeks vs untreated controls, 100% = plants have died
In short: as §1

Veronica persica [4] = assay: Pre-emergence herbicidal effect; type: in vivo; settings: Dosage 320 g/ha, visual scoring after 3 weeks vs untreated controls, 100% = plants have died
In short: as §1

Avena fatua [5] = assay: Pre-emergence herbicidal effect; type: in vivo; settings: Dosage 320 g/ha, visual scoring after 3 weeks vs untreated controls, 100% = plants have died
In short: as §1

Abutilon theophrasti [6] = assay: Pre-emergence herbicidal effect; type: in vivo; settings: Dosage 320 g/ha, visual scoring after 3 weeks vs untreated controls, 100% = plants have died
In short: as §1

Alopecurus myosuroides [7] = assay: Pre-emergence herbicidal effect; type: in vivo; settings: Dosage 320 g/ha, visual scoring after 3 weeks vs untreated controls, 100% = plants have died
In short: as §1

Stellaria media [8] = assay: Pre-emergence herbicidal effect; type: in vivo; settings: Dosage 320 g/ha, visual scoring after 3 weeks vs untreated controls, 100% = plants have died
In short: as §1

Setaria viridis [9] = assay: Pre-emergence herbicidal effect; type: in vivo; settings: Dosage 320 g/ha, visual scoring after 3 weeks vs untreated controls, 100% = plants have died
In short: as §1

Cyperus esculentus = assay: Pre-emergence herbicidal effect; type: in vivo; settings: Dosage 320 g/ha, visual scoring after 3 weeks vs untreated controls, 100% = plants have died
In short: as §1

Lolium multiflorum [10] = assay: Pre-emergence herbicidal effect; type: in vivo; settings: Dosage 320 g/ha, visual scoring after 3 weeks vs untreated controls, 100% = plants have died
In short: as §1

Echinochloa crus-galli [11] = assay: Post-emergence herbicidal effect; type: in vivo; settings: Dosage 320 g/ha, one-leaf stage, visual scoring after ca. 3 weeks vs untreated controls, 100% = plants have died
In short: (§2)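 Percent effect rated visually about three weeks after spraying, where 0% equals untreated control growth and 100% equals plant death. Spraying was done at the one-leaf stage on greenhouse plants in sandy loam, using WP or EC formulations dosed in g/ha.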

Matricaria inodora [12] = assay: Post-emergence herbicidal effect; type: in vivo; settings: Dosage 320 g/ha, one-leaf stage, visual scoring after ca. 3 weeks vs untreated controls, 100% = plants have died
In short: as §2

Amaranthus retroflexus [13] = assay: Post-emergence herbicidal effect; type: in vivo; settings: Dosage 320 g/ha, one-leaf stage, visual scoring after ca. 3 weeks vs untreated controls, 100% = plants have died
In short: as §2

Veronica persica [14] = assay: Post-emergence herbicidal effect; type: in vivo; settings: Dosage 320 g/ha, one-leaf stage, visual scoring after ca. 3 weeks vs untreated controls, 100% = plants have died
In short: as §2

Avena fatua [15] = assay: Post-emergence herbicidal effect; type: in vivo; settings: Dosage 320 g/ha, one-leaf stage, visual scoring after ca. 3 weeks vs untreated controls, 100% = plants have died
In short: as §2

Abutilon theophrasti [16] = assay: Post-emergence herbicidal effect; type: in vivo; settings: Dosage 320 g/ha, one-leaf stage, visual scoring after ca. 3 weeks vs untreated controls, 100% = plants have died
In short: as §2

Alopecurus myosuroides [17] = assay: Post-emergence herbicidal effect; type: in vivo; settings: Dosage 320 g/ha, one-leaf stage, visual scoring after ca. 3 weeks vs untreated controls, 100% = plants have died
In short: as §2

Viola tricolor [18] = assay: Post-emergence herbicidal effect; type: in vivo; settings: Dosage 320 g/ha, one-leaf stage, visual scoring after ca. 3 weeks vs untreated controls, 100% = plants have died
In short: as §2

Stellaria media [19] = assay: Post-emergence herbicidal effect; type: in vivo; settings: Dosage 320 g/ha, one-leaf stage, visual scoring after ca. 3 weeks vs untreated controls, 100% = plants have died
In short: as §2

Setaria viridis [20] = assay: Post-emergence herbicidal effect; type: in vivo; settings: Dosage 320 g/ha, one-leaf stage, visual scoring after ca. 3 weeks vs untreated controls, 100% = plants have died
In short: as §2

Lolium multiflorum [21] = assay: Post-emergence herbicidal effect; type: in vivo; settings: Dosage 320 g/ha, one-leaf stage, visual scoring after ca. 3 weeks vs untreated controls, 100% = plants have died
In short: as §2

Polygonum convolvulus [22] = assay: Post-emergence herbicidal effect; type: in vivo; settings: Dosage 320 g/ha, one-leaf stage, visual scoring after ca. 3 weeks vs untreated controls, 100% = plants have died
In short: as §2

PHBPU = assay: Post-emergence herbicidal effect; type: in vivo; settings: Dosage 320 g/ha, one-leaf stage, visual scoring after ca. 3 weeks vs untreated controls, 100% = plants have died
In short: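 Effect is rated visually as percent versus untreated plants (0% = like controls, 100% = plants died) about 3 weeks post-treatment. Plants at the one-leaf stage, 2 to 3 weeks from sowing in sandy loam, received spray of wettable powder or emulsion concentrate in 600 to 800 l/ha water plus 0.2% wetting agent, dosed in g/ha.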

[23] = logp (HCOOH), chemicophysical data; settings: for chromatographic logP: HCOOH (formic acid)
Viola tricolor [24] = assay: Pre-emergence herbicidal effect; type: in vivo; settings: Dosage 320 g/ha, visual scoring after 3 weeks vs untreated controls, 100% = plants have died
In short: as §1

Polygonum convolvulus [25] = assay: Pre-emergence herbicidal effect; type: in vivo; settings: Dosage 320 g/ha, visual scoring after 3 weeks vs untreated controls, 100% = plants have died
In short: as §1

Cc1ccc2c(c1)[C@H](Nc1nc(C)c(C#N)c(N)n1)[C@@H](C)C2 [Example 1.17]
Pre-emergence herbicidal effect ECHCG (Echinochloa crus-galli [1]): 100%
Pre-emergence herbicidal effect MATIN (Matricaria inodora [2]): 100%
Pre-emergence herbicidal effect AMARE (Amaranthus retroflexus [3]): 100%
Pre-emergence herbicidal effect VERPE (Veronica persica [4]): 100%
Pre-emergence herbicidal effect AVEFA (Avena fatua [5]): 90%
Pre-emergence herbicidal effect ABUTH (Abutilon theophrasti [6]): 100%
Pre-emergence herbicidal effect ALOMY (Alopecurus myosuroides [7]): 100%
Pre-emergence herbicidal effect STEME (Stellaria media [8]): 100%
Pre-emergence herbicidal effect SETVI (Setaria viridis [9]): 100%
Pre-emergence herbicidal effect CYPES (Cyperus esculentus): 90%
Pre-emergence herbicidal effect LOLMU (Lolium multiflorum [10]): 100%
Post-emergence herbicidal effect ECHCG (Echinochloa crus-galli [11]): 93%
Post-emergence herbicidal effect MATIN (Matricaria inodora [12]): 85%
Post-emergence herbicidal effect AMARE (Amaranthus retroflexus [13]): 97%
Post-emergence herbicidal effect VERPE (Veronica persica [14]): 87%
Post-emergence herbicidal effect AVEFA (Avena fatua [15]): 80%
Post-emergence herbicidal effect ABUTH (Abutilon theophrasti [16]): 87%
Post-emergence herbicidal effect ALOMY (Alopecurus myosuroides [17]): 90%
Post-emergence herbicidal effect VIOTR (Viola tricolor [18]): 90%
Post-emergence herbicidal effect STEME (Stellaria media [19]): 97%
Post-emergence herbicidal effect SETVI (Setaria viridis [20]): 90%
Post-emergence herbicidal effect LOLMU (Lolium multiflorum [21]): 93%
Post-emergence herbicidal effect POLCO (Polygonum convolvulus [22]): 80%
Post-emergence herbicidal effect PHBPU (PHBPU): 90%
logp (HCOOH) [23]: solid, m.p.: 166.4° C.; logp (HCOOH): 2.40; 1H-NMR (CDCl3, 400 MHZ, δ in ppm): 1.25

Cc1ccc2c(c1)[C@H](Nc1ncc(C#N)c(N)n1)[C@@H](C)C2 [Example 1.35]
Pre-emergence herbicidal effect ECHCG (Echinochloa crus-galli [1]): 100%
Pre-emergence herbicidal effect MATIN (Matricaria inodora [2]): 100%
Pre-emergence herbicidal effect AMARE (Amaranthus retroflexus [3]): 100%
Pre-emergence herbicidal effect VERPE (Veronica persica [4]): 100%
Pre-emergence herbicidal effect AVEFA (Avena fatua [5]): 100%
Pre-emergence herbicidal effect ABUTH (Abutilon theophrasti [6]): 100%
Pre-emergence herbicidal effect ALOMY (Alopecurus myosuroides [7]): 100%
Pre-emergence herbicidal effect VIOTR (Viola tricolor [24]): 100%
Pre-emergence herbicidal effect STEME (Stellaria media [8]): 100%
Pre-emergence herbicidal effect SETVI (Setaria viridis [9]): 100%
Pre-emergence herbicidal effect CYPES (Cyperus esculentus): 100%
Pre-emergence herbicidal effect LOLMU (Lolium multiflorum [10]): 100%
Pre-emergence herbicidal effect POLCO (Polygonum convolvulus [25]): 100%
Post-emergence herbicidal effect ECHCG (Echinochloa crus-galli [11]): 100%
Post-emergence herbicidal effect MATIN (Matricaria inodora [12]): 85%
Post-emergence herbicidal effect AMARE (Amaranthus retroflexus [13]): 93%
Post-emergence herbicidal effect VERPE (Veronica persica [14]): 95%
Post-emergence herbicidal effect AVEFA (Avena fatua [15]): 95%
Post-emergence herbicidal effect ABUTH (Abutilon theophrasti [16]): 95%
Post-emergence herbicidal effect ALOMY (Alopecurus myosuroides [17]): 100%
Post-emergence herbicidal effect VIOTR (Viola tricolor [18]): 90%
Post-emergence herbicidal effect STEME (Stellaria media [19]): 95%
Post-emergence herbicidal effect SETVI (Setaria viridis [20]): 95%
Post-emergence herbicidal effect LOLMU (Lolium multiflorum [21]): 90%
Post-emergence herbicidal effect POLCO (Polygonum convolvulus [22]): 90%
Post-emergence herbicidal effect PHBPU (PHBPU): 90%
logp (HCOOH) [23]: wax-like; logp (HCOOH): 2.35; 1H-NMR (CDCl3, 400 MHZ, δ in ppm): 1.25 (d, 3H, CH3);

Cc1ccc2c(c1)[C@H](Nc1nc(N)c(C#N)c(-c3ccccc3F)n1)[C@@H](C)C2 [Example 1.104, 4-Amino-2-{[(1R,2S)-2,6-dimethyl-2,3-dihydro-1H-inden-1-yl]amino}-6-(2-fluorophenyl)pyrimidine-5-carbonitrile]
melting point: 67 to 68 °C
chromatographic logP [23]: 3.65

Cc1ccc2c(c1)[C@H](Nc1ncc(Cl)c(N)n1)[C@@H](C)C2 [Example 1.105]
Pre-emergence herbicidal effect ECHCG (Echinochloa crus-galli [1]): 100%
Pre-emergence herbicidal effect MATIN (Matricaria inodora [2]): 100%
Pre-emergence herbicidal effect AMARE (Amaranthus retroflexus [3]): 100%
Pre-emergence herbicidal effect VERPE (Veronica persica [4]): 100%
Pre-emergence herbicidal effect AVEFA (Avena fatua [5]): 80%
Pre-emergence herbicidal effect ABUTH (Abutilon theophrasti [6]): 100%
Pre-emergence herbicidal effect ALOMY (Alopecurus myosuroides [7]): 100%
Pre-emergence herbicidal effect VIOTR (Viola tricolor [24]): 100%
Pre-emergence herbicidal effect STEME (Stellaria media [8]): 100%
Pre-emergence herbicidal effect SETVI (Setaria viridis [9]): 100%
Pre-emergence herbicidal effect CYPES (Cyperus esculentus): 100%
Pre-emergence herbicidal effect LOLMU (Lolium multiflorum [10]): 100%
Pre-emergence herbicidal effect POLCO (Polygonum convolvulus [25]): 100%
Post-emergence herbicidal effect ECHCG (Echinochloa crus-galli [11]): 100%
Post-emergence herbicidal effect MATIN (Matricaria inodora [12]): 90%
Post-emergence herbicidal effect AMARE (Amaranthus retroflexus [13]): 90%
Post-emergence herbicidal effect AVEFA (Avena fatua [15]): 90%
Post-emergence herbicidal effect ABUTH (Abutilon theophrasti [16]): 90%
Post-emergence herbicidal effect ALOMY (Alopecurus myosuroides [17]): 80%
Post-emergence herbicidal effect VIOTR (Viola tricolor [18]): 80%
Post-emergence herbicidal effect STEME (Stellaria media [19]): 90%
Post-emergence herbicidal effect SETVI (Setaria viridis [20]): 90%
Post-emergence herbicidal effect LOLMU (Lolium multiflorum [21]): 90%
Post-emergence herbicidal effect POLCO (Polygonum convolvulus [22]): 80%
Post-emergence herbicidal effect PHBPU (PHBPU): 90%
logp (HCOOH) [23]: wax-like; logp (HCOOH): 1.27; 1H-NMR (CDCl3, 400 MHZ, δ in ppm): 1.30 (d, 3H, CH3);

Nc1nc(N[C@@H]2CCCc3ccccc32)ncc1C(F)(F)F [Example 1.108, N2-[(1R)-1,2,3,4-Tetrahydronaphthalen-1-yl]-5-(trifluoromethyl)pyrimidine-2,4-diamine]
melting point: 130.8 °C
chromatographic logP [23]: 1.64

C#Cc1cnc(N[C@H]2c3cc(C)ccc3C[C@@H]2C)nc1N [Example 1.119, N2-[(1R,2S)-2,6-Dimethyl-2,3-dihydro-1H-inden-1-yl]-5-ethynylpyrimidine-2,4-diamine]
melting point: 99 °C
chromatographic logP [23]: 1.43
